# According to patent US8680052B1, “Methods of treating, reducing the incidence of, and/or preventing ischemic events” (The Medicines Company, priority 2013, dated 2014):
# Like-named read-outs stand apart in the source and are kept apart here.
# Tested on: patients with acute coronary syndromes undergoing PCI
# [1] = 48-hour, MITT Without STEMI, cangrelor vs clopidogrel
# [2] = 48-hour, MITT Without STEMI, exploratory
# [3] = 48 hours, ITT With STEMI, Cangrelor vs Clopidogrel
# [4] = 48 hours, ITT Without STEMI, Cangrelor vs Clopidogrel
# [5] = 48 hours, ITT, Cangrelor vs Clopidogrel
# [6] = 48 hours, MITT With STEMI, Cangrelor vs Clopidogrel
# [7] = 48 hours, MITT Without STEMI, Cangrelor vs Clopidogrel
# [8] = 48 hours, MITT, Cangrelor vs Clopidogrel
# Protocol: Patients were eligible for enrollment if they had stable angina, unstable angina, or non-ST-segment elevation (NSTE) MI with obstructive coronary artery disease and were scheduled to undergo PCI.
# The infusion began within 30 minutes prior to PCI and continued for at least 2 hours or until the conclusion of the index procedure, whichever was longer. At the treating physician's discretion, the infusion could be continued for 4 hours.
# All patients received aspirin 75-325 mg per local site standards. Adjunctive anticoagulants (unfractionated heparin, low molecular weight heparin, bivalirudin, or fondaparinux) and the procedural use of glycoprotein IIb/IIIa inhibitors were determined by the treating physician.
# The primary efficacy endpoint was the 48-hour composite of all-cause mortality, MI, or ischemia-driven revascularization. Prespecified secondary efficacy endpoints included the composite of mortality or MI at 48 hours and 30 days; the composite of mortality, MI, or ischemia-driven revascularization at 30 days; the components of the composite endpoints at 48 hours and 30 days; stroke at 48 hours; abrupt closure, threatened abrupt closure, need for urgent coronary artery bypass grafting, or unsuccessful procedure during the index PCI; acute (24 hours) and 48 hours stent thrombosis; and all-cause mortality at 6 months and 1 year.
# Rates of MI and ischemia-driven revascularization up to 30 days following the index procedure were assessed. Ischemia-driven revascularization was defined as symptoms of myocardial ischemia leading to urgent (within 24 hours of the last episode of ischemia) revascularization, which must have occurred after the index procedure concluded (i.e., guidewire removal). New electrocardiographic changes, acute pulmonary edema, ventricular arrhythmias, or hemodynamic instability could also constitute evidence of ischemia.
# MI was defined by a new Q wave (duration >0.03 seconds) in two contiguous electrocardiographic leads or elevations in creatine kinase (CK) and CK-MB, including a rise of CK-MB≧3 times the local upper limit or normal and, when biomarkers were elevated prior to PCI, an additional 50% above baseline. One baseline troponin measurement was required for patients undergoing urgent PCI. Measurements of CK-MB were obtained at 2, 10, 17, and 24 hours post-PCI.
# The primary efficacy analysis was to be determined in the modified intent-to-treat (mITT) population, defined as all randomized patients (excluding STEMI cohort) who received at least one dose of study drug and underwent the index PCI. The safety population consisted of all randomized patients who received any study drug. Patients in the safety analyses were assigned to a treatment arm based on treatment received, not as randomized.
smiles,measurement,setting,value
"CSCCNc1nc(SCCC(F)(F)F)nc2c1ncn2[C@@H]1O[C@H](COP(=O)(O)OP(=O)(O)C(Cl)(Cl)P(=O)(O)O)[C@@H](O)[C@H]1O [Cangrelor, cangrelor]",All-cause mortality,"48-hour, MITT Without STEMI",8 (0.2)
same,IDR,"48-hour, MITT Without STEMI",13 (0.3)
same,MI,"48-hour, MITT Without STEMI",278 (7.1)
same,Mortality/MI/IDR (primary endpoint),"48-hour, MITT Without STEMI",290 (7.5)
same,Q-wave MI,"48-hour, MITT Without STEMI",4 (0.1)
same,Stent thrombosis,"48-hour, MITT Without STEMI",7 (0.2)
same,Stroke,"48-hour, MITT Without STEMI",6 (0.2)
same,OR (95% CI): All-cause mortality,[1],"1.59 (0.52, 4.87)"
same,OR (95% CI): IDR,[1],"0.56 (0.28, 1.11)"
same,OR (95% CI): MI,[1],"1.09 (0.91, 1.29)"
same,OR (95% CI): Mortality/Q-wave MI/IDR,[1],"0.67 (0.39, 1.14)"
same,OR (95% CI): Mortality/Q-wave MI/Stent thrombosis,[1],"0.78 (0.42, 1.44)"
same,OR (95% CI): Q-wave MI,[1],"0.40 (0.12, 1.27)"
same,OR (95% CI): Stent thrombosis,[1],"0.63 (0.25, 1.63)"
same,OR (95% CI): Stroke,[1],"0.85 (0.29, 2.54)"
same,Mortality/Q-wave MI/IDR,[2],23 (0.6)
same,Mortality/Q-wave MI/Stent thrombosis,[2],18 (0.5)
same,All-cause mortality,"48 hours, ITT",9 (0.2) no. (%)
same,IDR,"48 hours, ITT",21 (0.5) no. (%)
same,MI,"48 hours, ITT",294 (6.7) no. (%)
same,Mortality/MI/IDR,"48 hours, ITT",312 (7.1) no. (%)
same,Mortality/Q-wave MI/IDR,"48 hours, ITT",32 (0.7) no. (%)
same,Mortality/Q-wave MI/Stent thrombosis,"48 hours, ITT",23 (0.5) no. (%)
same,Q-wave MI,"48 hours, ITT",4 (0.1) no. (%)
same,Stent thrombosis,"48 hours, ITT",11 (0.2) no. (%)
same,Stroke,"48 hours, ITT",6 (0.1) no. (%)
same,All-cause mortality,"48 hours, ITT With STEMI",1 (0.2) no. (%)
same,IDR,"48 hours, ITT With STEMI",6 (1.2) no. (%)
same,MI,"48 hours, ITT With STEMI",16 (3.3) no. (%)
same,Mortality/MI/IDR,"48 hours, ITT With STEMI",20 (4.1) no. (%)
same,Mortality/Q-wave MI/IDR,"48 hours, ITT With STEMI",7 (1.5) no. (%)
same,Mortality/Q-wave MI/Stent thrombosis,"48 hours, ITT With STEMI",5 (1.0) no. (%)
same,Q-wave MI,"48 hours, ITT With STEMI",0 (0.0) no. (%)
same,Stent thrombosis,"48 hours, ITT With STEMI",4 (0.8) no. (%)
same,Stroke,"48 hours, ITT With STEMI",0 (0.0) no. (%)
same,All-cause mortality OR (95% CI),[3],"0.209 (0.024, 1.793)"
same,IDR OR (95% CI),[3],"0.786 (0.271, 2.283)"
same,MI OR (95% CI),[3],"1.900 (0.831, 4.341)"
same,Mortality/MI/IDR OR (95% CI),[3],"1.054 (0.560, 1.985)"
same,Mortality/Q-wave MI/IDR OR (95% CI),[3],"0.560 (0.222, 1.416)"
same,Mortality/Q-wave MI/Stent thrombosis OR (95% CI),[3],"0.580 (0.193, 1.743)"
same,Stent thrombosis OR (95% CI),[3],"1.052 (0.262, 4.321)"
same,All-cause mortality,"48 hours, ITT Without STEMI",8 (0.2) no. (%)
same,IDR,"48 hours, ITT Without STEMI",15 (0.4) no. (%)
same,MI,"48 hours, ITT Without STEMI",278 (7.1) no. (%)
same,Mortality/MI/IDR,"48 hours, ITT Without STEMI",292 (7.4) no. (%)
same,Mortality/Q-wave MI/IDR,"48 hours, ITT Without STEMI",25 (0.6) no. (%)
same,Mortality/Q-wave MI/Stent thrombosis,"48 hours, ITT Without STEMI",18 (0.5) no. (%)
same,Q-wave MI,"48 hours, ITT Without STEMI",4 (0.1) no. (%)
same,Stent thrombosis,"48 hours, ITT Without STEMI",7 (0.2) no. (%)
same,Stroke,"48 hours, ITT Without STEMI",6 (0.2) no. (%)
same,All-cause mortality OR (95% CI),[4],"1.331 (0.461, 3.839)"
same,IDR OR (95% CI),[4],"0.649 (0.338, 1.246)"
same,MI OR (95% CI),[4],"1.090 (0.914, 1.299)"
same,Mortality/MI/IDR OR (95% CI),[4],"1.056 (0.890, 1.252)"
same,Mortality/Q-wave MI/IDR OR (95% CI),[4],"0.711 (0.425, 1.190)"
same,Mortality/Q-wave MI/Stent thrombosis OR (95% CI),[4],"0.747 (0.405, 1.379)"
same,Q-wave MI OR (95% CI),[4],"0.398 (0.125, 1.272)"
same,Stent thrombosis OR (95% CI),[4],"0.634 (0.246, 1.638)"
same,Stroke OR (95% CI),[4],"0.855 (0.287, 2.546)"
same,All-cause mortality OR (95% CI),[5],"0.821 (0.340, 1.983)"
same,IDR OR (95% CI),[5],"0.678 (0.389, 1.182)"
same,MI OR (95% CI),[5],"1.122 (0.945, 1.331)"
same,Mortality/MI/IDR OR (95% CI),[5],"1.058 (0.898, 1.248)"
same,Mortality/Q-wave MI/IDR OR (95% CI),[5],"0.667 (0.425, 1.045)"
same,Mortality/Q-wave MI/Stent thrombosis OR (95% CI),[5],"0.698 (0.409, 1.191)"
same,Q-wave MI OR (95% CI),[5],"0.401 (0.126, 1.279)"
same,Stent thrombosis OR (95% CI),[5],"0.735 (0.337, 1.603)"
same,Stroke OR (95% CI),[5],"0.752 (0.261, 2.170)"
same,All-cause mortality,"48 hours, MITT",9 (0.2) no. (%)
same,IDR,"48 hours, MITT",19 (0.4) no. (%)
same,MI,"48 hours, MITT",292 (6.7) no. (%)
same,Mortality/MI/IDR,"48 hours, MITT",308 (7.1) no. (%)
same,Mortality/Q-wave MI/IDR,"48 hours, MITT",30 (0.7) no. (%)
same,Mortality/Q-wave MI/Stent thrombosis,"48 hours, MITT",23 (0.5) no. (%)
same,Q-wave MI,"48 hours, MITT",4 (0.1) no. (%)
same,Stent thrombosis,"48 hours, MITT",11 (0.3) no. (%)
same,Stroke,"48 hours, MITT",6 (0.1) no. (%)
same,All-cause mortality,"48 hours, MITT With STEMI",1 (0.2) no. (%)
same,IDR,"48 hours, MITT With STEMI",6 (1.3) no. (%)
same,MI,"48 hours, MITT With STEMI",14 (3.1) no. (%)
same,Mortality/MI/IDR,"48 hours, MITT With STEMI",18 (4.0) no. (%)
same,Mortality/Q-wave MI/IDR,"48 hours, MITT With STEMI",7 (1.6) no. (%)
same,Mortality/Q-wave MI/Stent thrombosis,"48 hours, MITT With STEMI",5 (1.1) no. (%)
same,Q-wave MI,"48 hours, MITT With STEMI",0 (0.0) no. (%)
same,Stent thrombosis,"48 hours, MITT With STEMI",4 (0.9) no. (%)
same,Stroke,"48 hours, MITT With STEMI",0 (0.0) no. (%)
same,All-cause mortality OR (95% CI),[6],"0.249 (0.028, 2.235)"
same,IDR OR (95% CI),[6],"0.857 (0.286, 2.571)"
same,MI OR (95% CI),[6],"1.778 (0.739, 4.282)"
same,Mortality/MI/IDR OR (95% CI),[6],"1.064 (0.541, 2.092)"
same,Mortality/Q-wave MI/IDR OR (95% CI),[6],"0.632 (0.243, 1.645)"
same,Mortality/Q-wave MI/Stent thrombosis OR (95% CI),[6],"0.622 (0.202, 1.917)"
same,Stent thrombosis OR (95% CI),[6],"1.002 (0.249, 4.033)"
same,All-cause mortality,"48 hours, MITT Without STEMI",8 (0.2) no. (%)
same,IDR,"48 hours, MITT Without STEMI",13 (0.3) no. (%)
same,MI,"48 hours, MITT Without STEMI",278 (7.1) no. (%)
same,Mortality/MI/IDR (Prespecified primary endpoint),"48 hours, MITT Without STEMI",290 (7.5) no. (%)
same,Mortality/Q-wave MI/IDR,"48 hours, MITT Without STEMI",23 (0.6) no. (%)
same,Mortality/Q-wave MI/Stent thrombosis,"48 hours, MITT Without STEMI",18 (0.5) no. (%)
same,Q-wave MI,"48 hours, MITT Without STEMI",4 (0.1) no. (%)
same,Stent thrombosis,"48 hours, MITT Without STEMI",7 (0.2) no. (%)
same,Stroke,"48 hours, MITT Without STEMI",6 (0.2) no. (%)
same,"primary composite of all-cause mortality, MI, or ischemia-driven revascularization","48 hours, MITT Without STEMI",7.5%
same,All-cause mortality OR (95% CI),[7],"1.591 (0.520, 4.869)"
same,IDR OR (95% CI),[7],"0.560 (0.283, 1.108)"
same,MI OR (95% CI),[7],"1.085 (0.910, 1.294)"
same,Mortality/MI/IDR (Prespecified primary endpoint) OR (95% CI),[7],"1.048 (0.883, 1.243)"
same,Mortality/Q-wave MI/IDR OR (95% CI),[7],"0.670 (0.394, 1.140)"
same,Mortality/Q-wave MI/Stent thrombosis OR (95% CI),[7],"0.777 (0.419, 1.442)"
same,Q-wave MI OR (95% CI),[7],"0.397 (0.124, 1.267)"
same,Stent thrombosis OR (95% CI),[7],"0.632 (0.245, 1.631)"
same,Stroke OR (95% CI),[7],"0.852 (0.286, 2.536)"
same,All-cause mortality OR (95% CI),[8],"0.995 (0.394, 2.508)"
same,IDR OR (95% CI),[8],"0.628 (0.353, 1.118)"
same,MI OR (95% CI),[8],"1.107 (0.932, 1.315)"
same,Mortality/MI/IDR OR (95% CI),[8],"1.049 (0.889, 1.238)"
same,Mortality/Q-wave MI/IDR OR (95% CI),[8],"0.661 (0.416, 1.051)"
same,Mortality/Q-wave MI/Stent thrombosis OR (95% CI),[8],"0.737 (0.429, 1.265)"
same,Q-wave MI OR (95% CI),[8],"0.397 (0.125, 1.268)"
same,Stent thrombosis OR (95% CI),[8],"0.729 (0.334, 1.588)"
same,Stroke OR (95% CI),[8],"0.852 (0.286, 2.538)"
same,All-cause mortality,"48 hours, Safety population",9 (0.2) no. (%)
same,IDR,"48 hours, Safety population",19 (0.4) no. (%)
same,MI,"48 hours, Safety population",294 (6.7) no. (%)
same,Mortality/MI/IDR,"48 hours, Safety population",310 (7.1) no. (%)
same,Mortality/Q-wave MI/IDR,"48 hours, Safety population",30 (0.7) no. (%)
same,Mortality/Q-wave MI/Stent thrombosis,"48 hours, Safety population",23 (0.5) no. (%)
same,Q-wave MI,"48 hours, Safety population",4 (0.1) no. (%)
same,Stent thrombosis,"48 hours, Safety population",11 (0.3) no. (%)
same,Stroke,"48 hours, Safety population",6 (0.1) no. (%)
same,All-cause mortality,"30 days, ITT",40 (0.9) no. (%)
same,IDR,"30 days, ITT",62 (1.4) no. (%)
same,MI,"30 days, ITT",318 (7.3) no. (%)
same,Mortality/MI/IDR,"30 days, ITT",381 (8.7) no. (%)
same,Mortality/Q-wave MI/IDR,"30 days, ITT",102 (2.3) no. (%)
same,Mortality/Q-wave MI/Stent thrombosis,"30 days, ITT",68 (1.6) no. (%)
same,Q-wave MI,"30 days, ITT",9 (0.2) no. (%)
